Structures can show the parent of a compound that is named as a salt.

The target in this assay is human IRAK4 (Homo sapiens (Human), UniProt Q9NWZ3). Description: IRAK4 kinase inhibition, Transcreener fluorescence polarization (ADP). Type of assay: biochemical. To be noted: recombinant full-length His6-IRAK4 1.25 nM; 125 uM ATP; 125 uM peptide; 90 min; ATP Km 642 uM; read-out: IRAK4 Ki. As to the method:
Compounds were assayed for inhibition of human IRAK4 and IRAK1 catalytic activity using recombinant enzyme produced from insect cells. Full-length IRAK4 protein, carrying an N-terminal His6-Tag, was obtained from Life Technologies (Carlsbad, Calif., USA). The IRAK1 construct was produced internally and was comprised of IRAK1 residues Arg194 to Ser712, preceded by an NH2-terminal His6 tag and the coding sequence for glutathione-S-transferase.
Kinase activities were assayed using the Transcreener-Fluorecescence polarization platform (BelBrook Labs, Madison, Wis., USA) that measures amounts of the reaction product, ADP.
In general terms: Fluorescence polarisation rises when a labelled molecule tumbles more slowly, as on binding a larger partner.

Chain of human IRAK4 (Q9NWZ3 whole entry, the tested form may be a part): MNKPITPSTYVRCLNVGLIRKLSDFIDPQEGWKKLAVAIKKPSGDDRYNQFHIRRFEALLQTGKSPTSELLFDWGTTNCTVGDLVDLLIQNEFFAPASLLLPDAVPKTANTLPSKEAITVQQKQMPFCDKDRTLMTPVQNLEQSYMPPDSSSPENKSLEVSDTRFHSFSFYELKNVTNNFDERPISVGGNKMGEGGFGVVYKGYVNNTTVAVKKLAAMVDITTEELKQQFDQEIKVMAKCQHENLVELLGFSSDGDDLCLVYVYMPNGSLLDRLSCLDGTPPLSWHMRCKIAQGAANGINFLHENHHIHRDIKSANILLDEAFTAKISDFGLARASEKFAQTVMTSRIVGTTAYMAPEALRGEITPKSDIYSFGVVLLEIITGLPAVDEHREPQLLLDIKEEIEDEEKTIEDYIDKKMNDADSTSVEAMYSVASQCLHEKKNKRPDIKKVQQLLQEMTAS

In general, Ki refers to the equilibrium dissociation constant of an inhibitor or competing ligand from its target. With `Cc1oncc1CN1CCN(c2cc3c(cc2NC(=O)c2cnn4cccnc24)CC(C)(C)O3)CC1` [Example 12, N-(2,2-Dimethyl-6-(4-((5-methylisoxazol-4-yl)methyl)piperazin-1-yl)-2,3-dihydrobenzofuran-5-yl)pyrazolo[1,5-a]pyrimidine-3-carboxamide], the Ki came to 5.2 nM.

Consider `CC1(C)Cc2cc(NC(=O)c3cnn4cccnc34)c(N3CCN(C4COC4)CC3)cc2O1` [Example 13, N-(2,2-Dimethyl-6-(4-(oxetan-3-yl)piperazin-1-yl)-2,3-dihydrobenzofuran-5-yl)pyrazolo[1,5-a]pyrimidine-3-carboxamide], for which the Ki amounted to 8.1 nM.

As for `Cc1nocc1CN1CCN(c2cc3c(cc2NC(=O)c2cnn4cccnc24)CC(C)(C)O3)CC1` [Example 14, N-(2,2-Dimethyl-6-(4-((3-methylisoxazol-4-yl)methyl)piperazin-1-yl)-2,3-dihydrobenzofuran-5-yl)pyrazolo[1,5-a]pyrimidine-3-carboxamide hydrochloride], the Ki worked out at 5.2 nM.

With `CCc1oc(=O)[nH]c1CN1CCN(c2cc3c(cc2NC(=O)c2cnn4cccnc24)CC(C)(C)O3)CC1` [Example 15, N-(6-(4-((5-Ethyl-2-oxo-2,3-dihydrooxazol-4-yl)methyl)piperazin-1-yl)-2,2-dimethyl-2,3-dihydrobenzofuran-5-yl)pyrazolo[1,5-a]pyrimidine-3-carboxamide], the Ki amounted to 9.4 nM.

Regarding `Cc1noc(C)c1CN1CCN(c2cc3c(cc2NC(=O)c2cnn4cccnc24)CC(C)(C)O3)CC1` [Example 16, N-(6-(4-((3,5-Dimethylisoxazol-4-yl)methyl)piperazin-1-yl)-2,2-dimethyl-2,3-dihydrobenzofuran-5-yl)pyrazolo[1,5-a]pyrimidine-3-carboxamide], the Ki stood at 14 nM.

With `CC[C@@H]1CC(=O)NN1C1CCN(c2cc3c(cc2NC(=O)c2cnn4cccnc24)CC(C)(C)O3)CC1` [Example 17, (R)-N-(6-(4-(5-Ethyl-3-oxopyrazolidin-1-yl)piperidin-1-yl)-2,2-dimethyl-2,3-dihydrobenzofuran-5-yl)pyrazolo[1,5-a]pyrimidine-3-carboxamide], the Ki was 8.4 nM.

For `CC1(C)Cc2cc(NC(=O)c3cnn4cccnc34)c(O[C@H]3CN(CC(N)=O)C[C@@H]3N)cc2O1` [Example 19, N-(6-(((3S,4S)-4-Amino-1-(2-amino-2-oxoethyl)pyrrolidin-3-yl)oxy)-2,2-dimethyl-2,3-dihydrobenzofuran-5-yl)pyrazolo[1,5-a]pyrimidine-3-carboxamide], the Ki was found to be 53 nM.

On to `COc1cc2c(cc1NC(=O)c1cnn3ccc(Cl)nc13)CC(C)(C)O2` [Example 21, 5-Chloro-N-(6-methoxy-2,2-dimethyl-2,3-dihydrobenzofuran-5-yl)pyrazolo[1,5-a]pyrimidine-3-carboxamide], for which the Ki was 110 nM.

Take `CCN1C[C@H](COc2cc3c(cc2NC(=O)c2cnn4cccnc24)CC(C)(C)O3)CC1=O` [Example 22, (R)-N-(6-((1-Ethyl-5-oxopyrrolidin-3-yl)methoxy)-2,2-dimethyl-2,3-dihydrobenzofuran-5-yl)pyrazolo[1,5-a]pyrimidine-3-carboxamide]: the Ki was found to be 460 nM.

For `CN1C[C@H](COc2cc3c(cc2NC(=O)c2cnn4cccnc24)CC(C)(C)O3)CC1=O` [Example 24, (R)-N-(2,2-Dimethyl-6-((1-methyl-5-oxopyrrolidin-3-yl)methoxy)-2,3-dihydrobenzofuran-5-yl)pyrazolo[1,5-a]pyrimidine-3-carboxamide], the inhibition constant (Ki) amounted to 160 nM.

Consider `CC1(C)Cc2cc(NC(=O)c3cnn4cccnc34)c(OC[C@@H]3Cc4ccccc4[C@H]3N)cc2O1` [Example 26, N-[6-[[(1S,2R)-1-Aminoindan-2-yl]methoxy]-2,2-dimethyl-3H-benzofuran-5-yl]pyrazolo[1,5-a]pyrimidine-3-carboxamide], for which the Ki came out at 280 nM.

Take `CC1(C)Cc2cc(NC(=O)c3cnn4cccnc34)c(OC[C@H]3C[C@@H]4NCCO[C@H]4C3)cc2O1` [Example 30, N-(2,2-Dimethyl-6-(((4aS,6S,7aS)-octahydrocyclopenta[b][1,4]oxazin-6-yl)methoxy)-2,3-dihydrobenzofuran-5-yl)pyrazolo[1,5-a]pyrimidine-3-carboxamide]: the inhibition constant (Ki) was 66 nM.

Turning to `COc1cc2c(cc1NC(=O)c1cnn3ccc(C4CCNC4=O)nc13)CC(C)(C)O2` (centres unmarked) [Example 35, N-(6-Methoxy-2,2-dimethyl-2,3-dihydrobenzofuran-5-yl)-5-(2-oxopyrrolidin-3-yl)pyrazolo[1,5-a]pyrimidine-3-carboxamide], the Ki stood at 100 nM.

For the compound `COc1cc2c(cc1NC(=O)c1cnn3ccc(N4C[C@@H](N)CC(F)(F)C4)nc13)CC(C)(C)O2` [Example 36, (S)-5-(5-Amino-3,3-difluoropiperidin-1-yl)-N-(6-methoxy-2,2-dimethyl-2,3-dihydrobenzofuran-5-yl)pyrazolo[1,5-a]pyrimidine-3-carboxamide], the Ki was determined as 14 nM.

With `COc1cc2c(cc1NC(=O)c1cnn3ccc(N(C)C4CC4)nc13)CC(C)(C)O2` [Example 38, 5-(Cyclopropyl(methyl)amino)-N-(6-methoxy-2,2-dimethyl-2,3-dihvdrobenzofuran-5-yl)pyrazolo[1,5-a]pyrimidine-3-carboxamide], the Ki turned out to be 180 nM.

As to `COc1cc2c(cc1NC(=O)c1cnn3ccc(N4CCC[C@@H](N)C4)nc13)CC(C)(C)O2` [Example 39, (R)-5-(3-Aminopiperidin-1-yl)-N-(6-methoxy-2,2-dimethyl-2,3-dihydrobenzofuran-5-yl)pyrazolo[1,5-a]pyrimidine-3-carboxamide], the Ki stood at 4.1 nM.

In the case of `COc1cc2c(cc1NC(=O)c1cnn3ccc(N[C@@H]4CCCNC4)nc13)CC(C)(C)O2` [Example 40, (R)-N-(6-Methoxy-2,2-dimethyl-2,3-dihydrobenzofuran-5-yl)-5-(piperidin-3-ylamino)pyrazolo[1,5-a]pyrimidine-3-carboxamide], the Ki was 0.87 nM.

Take `COc1cc2c(cc1NC(=O)c1cnn3ccc(N)nc13)CC(C)(C)O2` [Example 41, 5-amino-N-(6-Methoxy-2,2-dimethyl-2,3-dihydrobenzofuran-5-yl)pyrazolo[1,5-a]pyrimidine-3-carboxamide]: the Ki came to 4.6 nM.

Consider `COc1cc2c(cc1NC(=O)c1cnn3ccc(N4CCNCC4)nc13)CC(C)(C)O2` [Example 42, N-(6-Methoxy-2,2-dimethyl-2,3-dihydrobenzofuran-5-yl)-5-(piperazin-1-yl)pyrazolo[1,5-a]pyrimidine-3-carboxamide], for which the Ki was found to be 22 nM.

In the case of `COc1cc2c(cc1NC(=O)c1cnn3ccc(NCCN)nc13)CC(C)(C)O2` [Example 43, 5-((2-Aminoethyl)amino)-N-(6-methoxy-2,2-dimethyl-2,3-dihydrobenzofuran-5-yl)pyrazolo[1,5-a]pyrimidine-3-carboxamide], the Ki came out at 3.2 nM.

`COc1cc2c(cc1NC(=O)c1cnn3ccc(N(C)C)nc13)CC(C)(C)O2` [Example 44, 5-(Dimethylamino)-N-(6-methoxy-2,2-dimethyl-2,3-dihydrobenzofuran-5-yl)pyrazolo[1,5-a]pyrimidine-3-carboxamide]: the Ki worked out at 220 nM.

Turning to `CC1(C)Cc2cc3c(cc2O1)N1CCN(CCNc2ccn4ncc(c4n2)C(=O)N3)CC1` [Example 45, (5^3E,5^4E)-2^2,2^2-Dimethyl-2^2,2^3-dihydro-3,6-diaza-5(3,5)-pyrazolo[1,5-a]pyrimidina-1(1,4)-piperazina-2(6,5)-benzofuranacyclooctaphan-4-one], the Ki was found to be 120 nM.

Take `O=C1CCc2cc(NC(=O)c3cnn4cccnc34)c(N3CCOCC3)cc2N1` [Example 46, N-(7-Morpholino-2-oxo-1,2,3,4-tetrahydroquinolin-6-yl)pyrazolo[1,5-a]pyrimidine-3-carboxamide]: the inhibition constant Ki came to 42 nM.

As to `O=C(Nc1cc2c(cc1N1CCOCC1)N(CCO)C(=O)CC2)c1cnn2cccnc12` [Example 47, N-(1-(2-Hydroxyethyl)-7-morpholino-2-oxo-1,2,3,4-tetrahydroquinolin-6-yl)pyrazolo[1,5-a]pyrimidine-3-carboxamide], the inhibitory constant (Ki) was determined as 53 nM.

As to `O=C(Nc1cc2c(cc1N1CCOCC1)N(CCCO)C(=O)CC2)c1cnn2cccnc12` [Example 48, N-(1-(3-Hydroxypropyl)-7-morpholino-2-oxo-1,2,3,4-tetrahydroquinolin-6-yl)pyrazolo[1,5-a]pyrimidine-3-carboxamide], the Ki stood at 240 nM.

As for `C[C@@]1(CCC#N)COc2cc(N3CCOCC3)c(NC(=O)c3cnn4cccnc34)cc2C1` [Example 58, (S)—N-(3-(2-Cyanoethyl)-3-methyl-7-morpholinochroman-6-yl)pyrazolo[1,5-a]pyrimidine-3-carboxamide], the inhibition constant (Ki) came out at 19 nM.

Take `Cn1cc(COc2cc3c(cc2NC(=O)c2cnn4cccnc24)CN(C[C@@H](F)C(C)(C)O)C3=O)cn1` [Example 60, (R)—N-(2-(2-Fluoro-3-hydroxy-3-methylbutyl)-6-((1-methyl-1H-pyrazol-4-yl)methoxy)-1-oxoisoindolin-5-yl)pyrazolo[1,5-a]pyrimidine-3-carboxamide]: the Ki is 1.1 nM.

As to `CC(C)(O)[C@H](F)CN1Cc2cc(NC(=O)c3cnn4cccnc34)c(O[C@H]3C[C@@H](F)C3)cc2C1=O` [Example 61, N-[6-(3-Fluorocyclobutoxy)-2-[(2R)-2-fluoro-3-hydroxy-3-methyl-butyl]-1-oxo-isoindolin-5-yl]pyrazolo[1,5-a]pyrimidine-3-carboxamide], the Ki stood at 0.28 nM.

For `CC(C)(O)[C@H](F)CN1Cc2cc(NC(=O)c3cnn4cccnc34)c(O[C@H]3CCNC3)cc2C1=O` [Example 62, N-[2-[(2R)-2-Fluoro-3-hydroxy-3-methyl-butyl]-1-oxo-6-[(3S)-pyrrolidin-3-yl]oxy-isoindolin-5-yl]pyrazolo[1,5-a]pyrimidine-3-carboxamide], the Ki was found to be 9.2 nM.

Values taken from patent publication US11034698B2, “Pyrazolo[ 1,5a]pyrimidine derivatives as IRAK4 modulators” (priority 2017, dated 2021).
